Assay results published in patent publication US20140234318A1, “TUMOR SPECIFIC OLIGOSACCHARIDE EPITOPES AND USE THEREOF” (GLYKOS FINLAND OY, priority 2002, published 2014).

Assays:
Helicobacter pylori [1] = assay: Receptor activity of oligosaccharides for Helicobacter pylori; type: binding; settings: relative to the non-galactosylated receptor
Method: The structure is changed to 10-fold weaker receptor structure Galβ4GlcNAcβ3Galβ4GlcNAcβ3Galβ4Glc by incubating it with UDP-Gal and β4-galactosyltransferase from bovine milk. b) The oligosaccharide receptor GlcNAcβ3Galβ4GlcNAcβ3Galβ4Glc is incubated with GDP-Fuc and soluble human fucosyltransferase VI corresponding to major the fucosyltransferase from human milk. MALDI-TOF mass spectrometric analysis reveled a major peak corresponding to GlcNAcβ3Galβ4(Fucα3)GlcNAcβ3Galβ4Glc, the structure is confirmed by NMR-spectroscopy. c) Erythrocytes from a patient suffering from glycosylation deficiency causing high levels of terminal GlcNAc-structures including GlcNAcβ3Galβ4GlcβCer are incubated with radiolabeled UDP-Gal and βgalactosyltransferase. Transfer of labeled galactose on the cell surface is observed. The galactosylation of the cells reduces the reactivity of the cells with anti-GlcNAc-antibodies.

Helicobacter pylori [2] = settings: cited from earlier work
[3] = system: endogenous galactosyltransferase activity of human serum; assay: Activation of endogenous galactosyltransferase activity of human serum; type: biochemical
Method: Fresh human blood sample was collected from blood group B-individual (5 ml). After clotting for 30 min it was centrifuged at +4° C., 2000 rpm for 25 minutes, and the serum was collected for experiments (2 ml, stored on ice).
Reactions were performed with 50 nmol of acceptor saccharide (GlcNAcβ1-3Galβ1-4GlcNAc, from enzymatic synthesis, purified by ion exchange and gel filtration, characterized by NMR and mass spectrometry), 5 nmol UDP-[^14C]Gal (mixture of nonlabelled and radioactive, radioactivity was 100 000 cpm) and 20 μl of fresh human serum (total volume was 20 μl). Reaction conditions were varied by adding cations and bovine milk β1,4-galactosyltransferase (β1,4GalT).

[4] = system: IgG antibodies against specific carbohydrate epitopes in serum of cancer patients; assay: ELISA of serum IgG antibodies binding to synthetic glycoconjugates; set-up: species or system human; settings: for serum antibody levels against the epitope, summary in words: IgG and IgM, group of four cancer patients
Text: (§1) A group of four people with various stages of diagnosed cancer of the gastrointestinal tract or the ovary, was studied by analyzing serum samples for their concentrations of IgG and IgM antibodies against specific carbohydrate epitopes. The assay consisted of binding of specific antibodies from serum to synthetic glycoconjugates, washing, and then detecting the specifically bound antibody levels in ELISA with enzyme-labelled anti-human IgG or anti-human IgM secondary antibodies and quantitation of specific reaction products.

[5] = system: IgM antibodies against specific carbohydrate epitopes in serum of cancer patients; assay: ELISA of serum IgM antibodies binding to synthetic glycoconjugates; set-up: species or system human
Text: as §1

[6] = system: recombinant β1,4-galactosyltransferase similar to the enzyme described in (Ramakrishnan and Qasba, 2002); assay: Transfer of modified galactosamine from UDP-GalN conjugates to terminal GlcNAc acceptor by modified galactosyltransferase; type: biochemical, bovine; settings: MALDI-TOF MS of the product
[7] = system: terminal GlcNAc residues in lung adenocarcinoma tissue sections; assay: Labeling of terminal GlcNAc residues in tissue sections with UDP-GalN-biotin; set-up: species or system human; settings: streptavin-FITC, fluorescence microscopy
Method: In a typical procedure, an oligosaccharide acceptor such as GlcNAcβ1-3Galβ1-4GlcNAcβ1-3Galβ1-4Glc, or deparaffinised formalin-fixed paraffin-embedded tissue sections, are incubated at + 37° C. with a reaction mixture containing 10 mM UDP-GalN-biotin, 160 U/l enzyme, 100 mM Tris-HCl, and 20 mM MnCl2. After washing, the biotin groups are visualised by standard methods in the art, using streptavidin or avidin coupled reagents, for example streptavidin-FITC.

Compound | serum antibody levels against the epitope, summary in words [4] | antibody signal intensity from which the assay background has been subtracted ([4]; Patient 1, IgG) | antibody signal intensity from which the assay background has been subtracted ([4]; Patient 2, IgG) | antibody signal intensity from which the assay background has been subtracted ([4]; Patient 3, IgG) | antibody signal intensity from which the assay background has been subtracted ([4]; Patient 4, IgG) | antibody signal intensity from which the assay background has been subtracted ([5]; Patient 1, IgM) | antibody signal intensity from which the assay background has been subtracted ([5]; Patient 2, IgM) | antibody signal intensity from which the assay background has been subtracted ([5]; Patient 3, IgM) | antibody signal intensity from which the assay background has been subtracted ([5]; Patient 4, IgM) | also measured
CC(=O)N[C@H]1[C@H](O[C@H]2[C@@H](O)[C@@H](CO)O[C@@H](O[C@H]3[C@H](O)[C@@H](NC(C)=O)[C@H](O[C@H]4[C@@H](O)[C@@H](CO)O[C@@H](O[C@H]5[C@H](O)[C@@H](O)C(O)O[C@@H]5CO)[C@@H]4O)O[C@@H]3CO)[C@@H]2O)O[C@H](CO)[C@@H](O[C@@H]2O[C@H](CO)[C@H](O)[C@H](O)[C@H]2O)[C@@H]1O (stereo partly shown) [Galβ4GlcNAcβ3Galβ4GlcNAcβ3Galβ4Glc] |  |  |  |  |  |  |  |  |  | receptor strength for Helicobacter pylori, weaker than GlcNAcβ3Galβ4GlcNAcβ3Galβ4Glc (Helicobacter pylori [1]): 10 fold
CC(=O)N[C@H]1[C@H](O[C@H]2[C@@H](O)[C@@H](CO)O[C@@H](O[C@H]3[C@H](O)[C@@H](O)C(O)O[C@@H]3CO)[C@@H]2O)O[C@H](CO)[C@@H](O[C@@H]2O[C@H](CO)[C@H](O)[C@@H](O[C@@H]3O[C@H](CO)[C@@H](O)[C@H](O)[C@H]3NC(C)=O)[C@H]2O)[C@@H]1O (stereo partly shown) [GlcNAcβ3Galβ4GlcNAcβ3Galβ4Glc] |  |  |  |  |  |  |  |  |  | receptor for Helicobacter pylori (Helicobacter pylori [2]): receptor for the gastric pathogen Helicobacter pylori
[Cl][Mn][Cl] [MnCl2] |  |  |  |  |  |  |  |  |  | Product ([3]; 0.2 mM MnCl2, no external β1,4GalT): 457 cpm; Product ([3]; 1 mM MnCl2, no external β1,4GalT): 1073 cpm; Product ([3]; 5 mM MnCl2, no external β1,4GalT): 566 cpm
GlcNAcβ1-2Manα1-6(GlcNAcβ1-2Manα1-3)Manβ1-4GlcNAcβ1-4(Fucα1-6)GlcNAcβ-N-Asn-R [Saccharide 1] | elevated in one patient | 0 | 0 | 0.006 | 0 | 0 | 0 | 0.01 | 0 | 
GlcNAcβ1-3GalNAcα-O—CH2—R [Saccharide 5] | identical pattern of antibody type response | 0.017 | 0.094 | 0 | 0 | 0.125 | 0.041 | 0.011 | 0.056 | 
GlcNAcβ1-6(Galβ1-3)GalNAcα-O—CH2—R [Saccharide 3] | elevated in the whole patient group | 0.039 | 0.078 | 0 | 0 | 0.091 | 0.008 | 0.068 | 0.042 | 
GlcNAcβ-O—CH2—R [Saccharide 4] | Two patients showed elevated serum levels of mainly IgM and one patient mainly IgG | 0 | 0.082 | 0.013 | 0 | 0.159 | 0.029 | 0.122 | 0 | 
uridine 5′-diphospho-N-(6-biotinamidohexanoyl)galactosamine [UDP-GalN-biotin] |  |  |  |  |  |  |  |  |  | transfer of the modified galactosamine residue to a terminal GlcNAc acceptor [6]: reacted; labeling of cancer cells in tissue sections [7]: cancer cells could be labeled
